Data reported in PMC11732138, “Gold complex compounds that inhibit drug-resistant Staphylococcus aureus by targeting thioredoxin reductase” (Frontiers in Antibiotics, 2023).
≈ marks a conversion by molar mass, not a printed value. Where two headings read alike, the source gives them in different places. One block for each molecule: values may come before it.

Columns and labels:
[1] = tested on: S. aureus MW2; experiment: Broth microdilution MIC, S. aureus MW2; format: cell-based, Staphylococcus aureus; details: for MIC: S. aureus MW2 (MRSA), broth microdilution, 18 h
Protocol: (§1) In vitro antibiotic susceptibilities were determined using the broth microdilution assay established by the Clinical and Laboratory Standards Institute ([Clinical and Laboratory Standards Institute, 2012]). Broth microdilution assays were carried out with 2 biological replicates, each in triplicate, Mueller–Hinton broth (MHB; BD Biosciences, Franklin Lakes, NJ, USA) with a total assay volume of 100 μL in 96-well plates (BD Biosciences, Franklin Lakes, NJ, USA). Two-fold serial dilutions of compounds were prepared at a range of 0.01– 64 μg/mL in 50 μL of MHB. The initial bacterial inoculum was adjusted to OD600 0.06, 50 μL was, added to the test compounds, and then incubated at 35°C for 18 h. Post incubation, OD600 was measured using a Vmax microplate reader (Molecular Devices, San Jose, CA), and the lowest concentration of test compound that suppressed bacterial growth was reported as the MIC. Broth culture from the MIC assay (10 μL) was plated on Mueller–Hinton agar (BD Biosciences, Franklin Lakes, NJ, USA), and colony-forming units (CFUs) were enumerated after overnight incubation at 37°C.

[2] = molecular target: S. aureus TrxR (Staphylococcus aureus, UniProt P66011); experiment: TrxR (TrxB) enzymatic assay, DTNB to TNB conversion; details: for TrxR enzymatic inhibitory activity (in words): DTNB to TNB conversion
Protocol: TrxR specific inhibitory activity was evaluated using 40 μL of S. aureus TrxR enzyme (0.5 μg/μL) per 200 mL of the reaction mixture for 15 minutes, comparing auranofin to other sulfur-containing compounds (all tested at 10 μg/mL), including known anti-S. aureus compounds.
For the screening assay, diluted TrxR assay buffer (Cayman Chemical, Ann Arbor, MI) (100 μL) was mixed with the investigational compounds (20 μL) in a 96 well-plate format and combined with Sa-TrxB (40 μL; 0.5 μg/mL), DTNB (20 μL) and NADPH (20 μL). The reaction entailed combining NADPH and Sa-TrxB with DTNB, which was converted to TNB, producing a yellow color.

[3] = Compound solubility in PBS; format: physicochemical; details: aqueous buffer, kinetic from dmso stock; PBS, 2 Hour; highest concentration with no detectable precipitate; read-out: Solubility Limit
Protocol: Compound solubility in PBS. Compound solubility was measured in PBS. Briefly, serial dilutions of test compounds were prepared in DMSO at 100x the final concentration. Test compound solutions were diluted 100-fold into PBS in a 96-well plate and mixed. After 2 h, the presence of precipitate was detected by measuring absorbance at 540 nm.

[4] = tested on: intracellular free thiols of S. aureus MW2; experiment: Thiol depletion assay; format: cell-based, Staphylococcus aureus; details: treated vs untreated cell lysate
Protocol: S. aureus MW2 was treated for 15 min with the indicated (0.125, 0.25, 0.5, or 0.75 µg/mL) concentrations of auranofin, AU1, AU5, or ampicillin. After treatment bacteria were washed twice in PBS and then resuspended in 100 mM potassium phosphate, monobasic, pH 7.4, containing 1 mM ethylenediaminetetraacetic acid to promote lysis. Cells were incubated in the lysis solution for 30 min at 60°C and then vortexed briefly. The solution was centrifuged at 13,000 g for 10 min to collect cell debris. Lysate was collected and 50 μL was transferred to a 96-well plate. Thiols were quantified using the Fluorometric Thiol assay kit following the manufacturer’s instructions (Millipore Sigma, St. Louis, MO, USA). The fluorescence intensity was measured after a 30 min incubation time at λex = 490/λem = 535 nm using a Vmax plate reader.

[5] = tested on: S. aureus MW2; experiment: Diamide assay (CFU reduction); format: cell-based, Staphylococcus aureus; details: 3 h
Protocol: An overnight culture of S. aureus MW2 was inoculated in tryptic soy broth (TSB) media and grown with agitation. The cells were centrifuged, washed with PBS, and diluted to an OD600 0.4 (10^8 CFU/mL) in PBS. The cells were then treated with auranofin (0.5 µg/mL), AU1 (0.5 µg/mL), AU5 (0.5 µg/mL), and diamide (5 mM and 10 mM) alone or in combinations for 3 h at 37°C. The cells were then serially diluted and plated on tryptic soy agar (TSA) media and incubated at 37°C for 24 h. Colonies that grew on plates were enumerated to determine the effect of the drug and diamide on S. aureus.

[6] = tested on: clinical isolates of S. aureus; experiment: MIC against clinical isolates of S. aureus; format: cell-based; details: Staphylococcus aureus, read-out: MIC
Protocol: Broth microdilution assays were carried out with 2 biological replicates, each in triplicate, Mueller–Hinton broth (MHB; BD Biosciences, Franklin Lakes, NJ, USA) with a total assay volume of 100 μL in 96-well plates (BD Biosciences, Franklin Lakes, NJ, USA). […] The initial bacterial inoculum was adjusted to OD600 0.06, 50 μL was, added to the test compounds, and then incubated at 35°C for 18 h. Post incubation, OD600 was measured using a Vmax microplate reader (Molecular Devices, San Jose, CA), and the lowest concentration of test compound that suppressed bacterial growth was reported as the MIC.
Isolates were tested as 2 biological replicates.

[7] = tested on: E. faecium ATCC E007; experiment: Broth microdilution MIC, E. faecium; format: cell-based, Enterococcus faecium; details: Enterococcus faecium, ATCCE007; E. faecium ATCC E007; read-out: MIC
Protocol: as §1

[8] = tested on: A. baumannii 17978; experiment: Broth microdilution MIC, A. baumannii; format: cell-based, Acinetobacter baumannii; details: Acinetobacter baumannii; A. baumannii 17978; read-out: MIC
Protocol: as §1

[9] = tested on: P. aeruginosa PA14; experiment: Broth microdilution MIC, P. aeruginosa; format: cell-based, Pseudomonas aeruginosa; details: Pseudomonas aeruginosa; P. aeruginosa PA14; read-out: MIC
Protocol: as §1

[10] = tested on: K. pneumoniae ATCC 77326; experiment: Broth microdilution MIC, K. pneumoniae; format: cell-based, Klebsiella pneumonia; details: Klebsiella pneumoniae, ATCC77326; K. pneumoniae ATCC 77326; read-out: MIC
Protocol: as §1

[11] = tested on: Enterobacter (EAE 2625); experiment: Broth microdilution MIC, Enterobacter; format: cell-based, Enterobacter spp.; details: Enterobacter (EAE 2625); read-out: MIC
Protocol: as §1

TrxR enzymatic inhibitory activity (in words) [2]: did not inhibit
SMILES: COC(=O)/C=C/S(=O)(=O)c1ccc(C(C)(C)C)cc1 [D25]
anti-S. aureus activity (in words) [1]: not effective S. aureus inhibitors

SMILES: O=P(c1ccccc1)(c1ccccc1)c1ccccc1 [C4, Triphenylphosphine oxide]
MIC [1]: > 128 µg/mL

SMILES: CC(C)(C)c1ccc(S(=O)(=O)/C=C/C(N)=O)cc1 [D22]
anti-S. aureus activity (in words) [1]: not effective S. aureus inhibitors
TrxR enzymatic inhibitory activity (in words) [2]: demonstrated inhibitory activity but required higher concentrations than AU1, AU5, or auranofin

SMILES: COC(=O)[C@H]1[C@H]2C[C@@H]3c4[nH]c5cc(OC)ccc5c4CCN3C[C@H]2C[C@@H](OC(=O)c2cc(OC)c(OC)c(OC)c2)[C@@H]1OC [Reserpine]
solubility at 2 h [3]: 7.81 µM (≈ 4.75 µg/mL)

SMILES: CC1(C)S[C@@H]2[C@H](NC(=O)[C@H](N)c3ccccc3)C(=O)N2[C@H]1C(=O)O [ampicillin]
impact on free thiols (in words) [4]: no impact

SMILES: CC(C)(C)c1ccc(S)cc1 [C1, 4-tert-butylbenzenethiol]
MIC [1]: > 128 µg/mL

SMILES: CC(C)(C)c1ccc(S(=O)(=O)/C=C/CO)cc1 [D26]
anti-S. aureus activity (in words) [1]: not effective S. aureus inhibitors
TrxR enzymatic inhibitory activity (in words) [2]: demonstrated inhibitory activity but required higher concentrations than AU1, AU5, or auranofin

SMILES: CN(C)C(=O)/N=N/C(=O)N(C)C [diamide]
log CFU reduction ([5]; diamide alone 5 mM): 1.5 log CFU
log CFU reduction ([5]; diamide alone 10 mM): up to 2.6 log CFU

SMILES: CCP(=O)(CC)CC [C3, triethylphosphine oxide]
MIC [1]: > 128 µg/mL

SMILES: Cc1onc(-c2ccccc2)c1C(=O)N[C@@H]1C(=O)N2[C@@H]1SC(C)(C)[C@@H]2C(=O)O [Oxacillin]
MIC ([6]; isolate BFSA12): 0.5 µg/mL (≈ 1.25 µM)
MIC ([6]; isolate BFSA13): 1 µg/mL (≈ 2.49 µM)
MIC ([6]; isolate BFSA15): 0.25 µg/mL (≈ 0.623 µM)
MIC ([6]; isolate BFSA16): 0.25 µg/mL (≈ 0.623 µM)
MIC ([6]; isolate BFSA17): 0.125 µg/mL (≈ 0.311 µM)
MIC ([6]; isolate BFSA18): 0.5 µg/mL (≈ 1.25 µM)
MIC ([6]; isolate BFSA19): 0.5 µg/mL (≈ 1.25 µM)
MIC ([6]; isolate BFSA20): 0.5 µg/mL (≈ 1.25 µM)
MIC ([6]; isolate BFSA21): 0.5 µg/mL (≈ 1.25 µM)
MIC ([6]; isolate BFSA22): 1 µg/mL (≈ 2.49 µM)
MIC ([6]; isolate BFSA24): 0.5 µg/mL (≈ 1.25 µM)
MIC ([6]; isolate BFSA26): 0.25 µg/mL (≈ 0.623 µM)
MIC ([6]; isolate BFSA29): > 8 µg/mL
MIC ([6]; isolate BFSA30): > 8 µg/mL
MIC ([6]; isolate BFSA31): > 8 µg/mL
MIC ([6]; isolate BFSA32): > 8 µg/mL
MIC ([6]; isolate BFSA33): > 8 µg/mL
MIC ([6]; isolate BFSA34): > 8 µg/mL
MIC ([6]; isolate BFSA35): > 8 µg/mL
MIC ([6]; isolate BFSA36): > 8 µg/mL
MIC ([6]; isolate BFSA37): 0.25 µg/mL (≈ 0.623 µM)
MIC ([6]; isolate BFSA38): 0.25 µg/mL (≈ 0.623 µM)
MIC ([6]; isolate BFSA39): 0.25 µg/mL (≈ 0.623 µM)
MIC ([6]; isolate BFSA148): > 8 µg/mL
MIC ([6]; isolate BFSA149): > 8 µg/mL
MIC ([6]; isolate BFSA150): > 8 µg/mL
MIC ([6]; isolate BFSA151): > 8 µg/mL
MIC ([6]; isolate BFSA152): > 8 µg/mL
MIC ([6]; isolate BFSA153): > 8 µg/mL
MIC ([6]; isolate BFSA155): > 8 µg/mL

SMILES: CC(C)(C)c1ccc(S(=O)O)cc1 [C2, 4-tert-butylbenzenesulfinic acid]
MIC [1]: > 128 µg/mL

MIC ([1]; Staphylococcus aureus, read-out: MIC): 4 µg/mL (≈ 16 µM)
MIC [7]: 32 µg/mL (≈ 128 µM)
MIC [8]: 64 µg/mL (≈ 257 µM)
MIC [9]: > 64 µg/mL
MIC [10]: > 64 µg/mL
MIC [11]: > 64 µg/mL
OD420 in TrxR enzymatic assay ([2]; subscreen, after a 30 min incubation period, DMSO 0.483 ± 0.121): 0.1094
SMILES: CC(C)(C)c1ccc(S(=O)(=O)/C=C/C#N)cc1 [Bay11-7085]
